Assay results from PMC9570267, “A Computational QSAR, Molecular Docking and In Vitro Cytotoxicity Study of Novel Thiouracil-Based Drugs with Anticancer Activity against Human-DNA Topoisomerase II” (International Journal of Molecular Sciences, 2022).

Target: T1, topoisomerase I (Homo sapiens, UniProt P11387)
T1 construct: gene TOP1
T1 sequence (P11387 2-765): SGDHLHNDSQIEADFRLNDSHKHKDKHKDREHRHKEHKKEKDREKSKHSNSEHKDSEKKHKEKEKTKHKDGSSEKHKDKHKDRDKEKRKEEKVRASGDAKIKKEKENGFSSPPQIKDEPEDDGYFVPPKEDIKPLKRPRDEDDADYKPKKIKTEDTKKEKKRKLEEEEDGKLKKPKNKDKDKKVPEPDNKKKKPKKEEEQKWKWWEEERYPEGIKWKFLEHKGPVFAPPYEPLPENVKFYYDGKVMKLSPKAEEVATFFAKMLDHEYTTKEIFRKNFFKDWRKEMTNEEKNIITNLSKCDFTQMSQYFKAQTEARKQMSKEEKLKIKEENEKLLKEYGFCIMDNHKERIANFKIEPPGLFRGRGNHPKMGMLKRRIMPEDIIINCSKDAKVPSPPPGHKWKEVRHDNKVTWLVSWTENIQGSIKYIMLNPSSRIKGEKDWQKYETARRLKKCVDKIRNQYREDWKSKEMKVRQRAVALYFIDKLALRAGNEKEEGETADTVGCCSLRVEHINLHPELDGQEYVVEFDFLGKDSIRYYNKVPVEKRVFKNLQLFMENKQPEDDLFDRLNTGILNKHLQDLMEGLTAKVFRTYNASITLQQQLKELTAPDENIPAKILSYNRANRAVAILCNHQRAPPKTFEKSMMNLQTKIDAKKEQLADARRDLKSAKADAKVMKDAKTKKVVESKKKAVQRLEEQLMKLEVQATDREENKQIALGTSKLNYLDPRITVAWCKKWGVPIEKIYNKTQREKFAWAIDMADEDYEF
Test: supercoiled plasmid DNA relaxation gel assay (TopoGEN topo I kit)
Format: biochemical

Row | IC50 [µM] | SMILES
1 | 30.9 ± 1.49 | COc1ccc(C2C3=C(Nc4[nH]c(=S)[nH]c(=O)c42)c2ccccc2C3=O)cc1 (centres unmarked) [7H]
2 | 38.8 ± 2.27 | CN(C)c1ccc(C2C3=C(Nc4[nH]c(=S)[nH]c(=O)c42)c2ccccc2C3=O)cc1 (centres unmarked) [9H]
